According to patent US9199927B2, “Guanidinobenzoic acid compound” (Astellas Pharma Inc., priority 2011, dated 2015):
Where a name gives a salt, the structure may show the parent alone. Read-outs that look alike come from different tables or passages of the source.

Key:
[1] = tested on: ICR mice; assay: Increasing study of fecal protein concentration in mice; assay type: in vivo; conditions: Mus musculus, 5 mg/kg oral, feces collected 3 to 9 hours after, control = 1, read-out: protein increasing activity in feces, fold vs control
Procedure: 2. Increasing Study of Fecal Protein Concentration in Mice
For the experiment, 6-weeks old ICR mice (male) were used, and the experiment was carried out in five per group. After fasting the mice for 15 hours, the control group was forcibly orally administered with a 0.5% methyl cellulose (MC) solution, and the test drug group was forcibly orally administered (5 mg/kg) with a solution or suspension obtained by dissolving or suspending the compound in the 0.5% MC solution. The fasting was stopped immediately thereafter, free feeding (CE-2) started and then the feces were collected from after 3 hours to after 9 hours. All of the obtained feces were dissolved and suspended in 6 mL of distilled water, and centrifuged for 10 minutes at 3000 rpm. The protein concentration in the supernatant was measured by a Bradford method, and the amount of the protein in 1 g of feces was calculated by dividing the protein concentration in the feces by the total weight of feces. Further, the efficacy was investigated from the ratio to the control. For the compounds that were evaluated multiple times, the average values were calculated.
For some representative compounds, the protein increasing activities in feces are shown in Table 2, assuming a value for the control as 1. Ex in the table represents the Example No. as denoted below of the test compound.

[2] = biological target: human recombinant trypsin (r-h trypsin) (Homo sapiens (Human), UniProt P07477); assay: Inhibitory activity of trypsin enzyme (human recombinant trypsin, BZiPAR fluorescent substrate); assay type: biochemical; conditions: human recombinant trypsin 0.088 μg/mL, 30 minutes at room temperature
Procedure: (§1) 1. Inhibitory Activity of Trypsin Enzyme in Humans and Mice
(§2) In the experiment, human recombinant trypsin (r-h trypsin; manufactured by WAKO, cat. #206-17171) and mouse trypsin (m-trypsin; purified from the mouse small intestine contents by the present Company) were used.
(§3) The outline of the measurement method is shown below.
(§4) The compound was dissolved in dimethyl sulfoxide (DMSO), and diluted to an arbitrary concentration (A). A was 100-fold diluted with a buffer (0.1 M Tris (pH 8.0), 0.15 M NaCl, 10 mM CaCl2, 0.05% Brij38) (B). The r-h trypsin was diluted with a buffer to 0.088 μg/mL, and the m-trypsin was diluted with a buffer to 1/50 (C). […] The substrate solution of a substrate for the enzyme reaction, BZiPAR, (Rhodamine Reference Substrate) was diluted with a buffer to 5 μmol/L (D). B; 5 μL, C; 5 μL, and D; 10 μL were added to a 384-plate, and incubated at room temperature for 30 minutes. The fluorescent signals were detected with Ex/Em=497/520 using Tecan Safire Fluorometer. […] Based on the obtained inhibitory rates, IC50 values (nM) were calculated from the non-linear regression. The test was carried out in the same manner, using camostat as a control compound.
(§5) Ex in the table represents the Example No. as denoted below.

[3] = biological target: mouse trypsin (m-trypsin); assay: Inhibitory activity of trypsin enzyme (mouse trypsin purified from small intestine contents, BZiPAR fluorescent substrate); assay type: biochemical; conditions: mouse trypsin diluted 1/50, BZiPAR substrate, 30 minutes at room temperature
Excerpt: as §1, §2
The method to extract the trypsin from the mouse small intestine is shown below.
The small intestine contents and the gastrointestinal tract of 10 mice were suspended in PBS using Polytron and subjected to centrifugation at 15,000×g several times. The supernatant was mixed at 4° C. for 16 hours with a Benzamidine Sepharose 4 Fast Flow Resin (GE Healthcare: #17-5123-10). After washing the resin with PBS, m-trypsin was eluted with a glycine elution buffer (pH 3.0).
as §3, §4, §5

SMILES	IC50 [2] [nM]	IC50 [3] [nM]	response vs control in vivo at 5 mg/kg [1] [%]	response vs control in vivo at 5 mg/kg ([1]; po, 9 h) [%]
CN(C(=O)N(CC(=O)O)Cc1cccc(C(=O)O)c1)c1ccc(OC(=O)c2ccc(NC(=N)N)cc2)cc1Cl [Example 61]	0.23	0.14	167	
CN(C(=O)N(CC(=O)O)Cc1csc(C(=O)O)c1)c1ccc(OC(=O)c2ccc(NC(=N)N)cc2)cc1Cl [Example 111]	0.54	0.44	201	
CN(C(=O)CN(CC(=O)O)Cc1cccc(C(=O)O)c1)c1ccc(OC(=O)c2ccc(NC(=N)N)cc2)cc1Cl [Example 94]	0.42	0.39		
N=C(N)Nc1ccc(C(=O)Oc2ccc(CCN(CC(=O)O)Cc3cccc(C(=O)O)c3)c(Cl)c2)cc1 [Example 65]	0.4	0.45		
N=C(N)Nc1ccc(C(=O)Oc2ccc(CCC(=O)N(CC(=O)O)Cc3cccc(C(=O)O)c3)c(Cl)c2)cc1 [Example 36]	0.43	0.38	192	
N=C(N)Nc1ccc(C(=O)Oc2ccc(CCC(=O)N(CC(=O)O)c3cccc(CC(=O)O)c3)c(Cl)c2)cc1 [Example 41]				177
N=C(N)Nc1ccc(C(=O)Oc2ccc(CCC(=O)N(CCc3cccc(C(=O)O)c3)CC(=O)O)c(Cl)c2)cc1 [Example 58]	0.73	0.68	179	
N=C(N)Nc1ccc(C(=O)Oc2ccc(CCC(=O)Nc3ccc(CC(=O)O)cc3)c(Cl)c2)cc1 [Example 11]	0.76	0.45		
C[C@H](C(=O)O)N(Cc1csc(C(=O)O)c1)C(=O)c1ccc2cc(OC(=O)c3ccc(NC(=N)N)cc3)ccc2n1 [Example 102]	0.29	0.3	231	
N=C(N)Nc1ccc(C(=O)Oc2ccc(CCN(CC(=O)O)C(=O)Cc3cccc(C(=O)O)c3)c(Cl)c2)cc1 [Example 66]	0.35	0.45		
COc1ccc(C[C@H](NC(=O)Cc2ccc(OC(=O)c3ccc(NC(=N)N)cc3)cc2Cl)C(=O)O)cc1 [Example 16]				170
N=C(N)Nc1ccc(C(=O)Oc2ccc(CCC(=O)N(CC(=O)O)Cc3cccc(CC(=O)O)c3)c(Cl)c2)cc1 [Example 78]	0.49	0.39	167	
N=C(N)Nc1ccc(C(=O)Oc2ccc(CCC(=O)N(Cc3cccc(C(=O)O)c3)Cc3cccc(C(=O)O)c3)c(Cl)c2)cc1 [Example 93]	0.4	0.56		
N=C(N)Nc1ccc(C(=O)Oc2ccc3nc(C(=O)N(CC(=O)O)Cc4cccc(C(=O)O)c4)ccc3c2)cc1 [Example 59]	0.27	0.31	217	
N=C(N)Nc1ccc(C(=O)Oc2ccc3nc(C(=O)N(CC(=O)O)Cc4csc(C(=O)O)c4)ccc3c2)cc1 [Example 80]	0.21	0.3	189	
N=C(N)Nc1ccc(C(=O)Oc2ccc3nc(C(=O)Nc4ccc(CC(=O)O)cc4)ccc3c2)cc1 [Example 22]	0.29	0.2		
N=C(N)Nc1ccc(C(=O)Oc2ccc3nc(C(=O)N(CC(=O)O)Cc4ccc(CC(=O)O)cc4)ccc3c2)cc1 [Example 113]				193
N=C(N)Nc1ccc(C(=O)Oc2ccc(CCC(=O)N(CC(=O)O)Cc3csc(C(=O)O)c3)c(Cl)c2)cc1 [Example 63]				184
N=C(N)Nc1ccc(C(=O)Oc2ccc3nc(C(=O)N[C@@H](Cc4ccc(OCC(=O)O)cc4)C(=O)O)ccc3c2)cc1 [Example 71]	0.18	0.23		
N=C(N)Nc1ccc(C(=O)Oc2ccc(CC(=O)N[C@@H](Cc3c[nH]cn3)C(=O)O)c(Cl)c2)cc1 [Example 2, N-({4-[(4-carbamimidamidobenzoyl)oxy]-2-chlorophenyl}acetyl)-L-histidine 2 hydrochloride]	0.92	0.49		
N=C(N)Nc1ccc(C(=O)Oc2ccc(CC(=O)N[C@@H](Cc3ccc(Cl)cc3)C(=O)O)c(Cl)c2)cc1 [Example 15]				167
N=C(N)Nc1ccc(C(=O)Oc2ccc3cc(C(=O)N[C@@H](Cc4ccccc4)C(=O)O)[nH]c3c2)cc1 [Example 119]				139

More lines, main results first:

IC50 [2] [nM]	IC50 [3] [nM]	SMILES	response vs control in vivo at 5 mg/kg [1] [%]	response vs control in vivo at 5 mg/kg ([1]; po, 9 h) [%]
0.46	0.47	N=C(N)Nc1ccc(C(=O)Oc2ccc(CCCC(=O)N(CC(=O)O)Cc3cccc(C(=O)O)c3)c(Cl)c2)cc1 [Example 51]		
0.26	0.19	N=C(N)Nc1ccc(C(=O)Oc2ccc(CC(=O)N[C@@H](Cc3cccc(F)c3)C(=O)O)c(Cl)c2)cc1 [Example 30]		
0.5	0.45	N=C(N)Nc1ccc(C(=O)Oc2ccc(CC(=O)N(CC(=O)O)[C@@H](Cc3ccccc3)C(=O)O)c(Cl)c2)cc1 [Example 40]		
0.31	0.34	N=C(N)Nc1ccc(C(=O)Oc2ccc(CC(=O)N[C@@H](Cc3ccc(C(F)(F)F)cc3)C(=O)O)c(Cl)c2)cc1 [Example 31]		
0.22	0.46	CC(C)(Oc1ccc(C[C@H](NC(=O)CCc2ccc(OC(=O)c3ccc(NC(=N)N)cc3)cc2Cl)C(=O)O)cc1)C(=O)O [Example 96]	202	
0.29	0.18	N=C(N)Nc1ccc(C(=O)Oc2ccc(CC(=O)N[C@@H](Cc3ccccc3)C(=O)O)c(Cl)c2Cl)cc1 [Example 26]		
0.21	0.17	N=C(N)Nc1ccc(C(=O)Oc2cc(F)c(CC(=O)N[C@@H](Cc3ccccc3)C(=O)O)c(F)c2)cc1 [Example 24]		
0.29	0.25	N=C(N)Nc1ccc(C(=O)Oc2ccc(CC(=O)N[C@@H](Cc3ccccc3)C(=O)O)c(C(F)(F)F)c2)cc1 [Example 25]		
0.51	0.4	N=C(N)Nc1ccc(C(=O)Oc2ccc(CCC(=O)NC(Cc3ccccc3)C(=O)O)c(Cl)c2)cc1 (stereo not shown) [Example 131]		
0.29	0.17	N=C(N)Nc1ccc(C(=O)Oc2ccc(CCC(=O)N(CC(=O)O)Cc3ccccc3)c(Cl)c2)cc1 [Example 62]		
0.36	0.24	N=C(N)Nc1ccc(C(=O)Oc2ccc(CC(=O)N[C@@H](Cc3ccccc3)C(=O)O)c(C3CC3)c2)cc1 [Example 34]		
0.44	0.28	N=C(N)Nc1ccc(C(=O)Oc2ccc(CC(=O)N(CCc3ccccc3)CC(=O)O)c(Cl)c2)cc1 [Example 35]		
0.38	0.34	N=C(N)Nc1ccc(C(=O)Oc2ccc(CCCCC(=O)N[C@@H](Cc3ccccc3)C(=O)O)c(Cl)c2)cc1 [Example 37]		
0.88	0.6	CN(C(=O)Cc1ccc(OC(=O)c2ccc(NC(=N)N)cc2)cc1Cl)[C@@H](Cc1ccccc1)C(=O)O [Example 33]		
0.31	0.21	N=C(N)Nc1ccc(C(=O)Oc2ccc(CC(=O)N[C@@H](Cc3ccccc3F)C(=O)O)c(Cl)c2)cc1 [Example 29]		
0.43	0.27	N=C(N)Nc1ccc(C(=O)Oc2ccc(CC(=O)N[C@@H](Cc3ccccc3)C(=O)O)c(-c3ccccc3)c2)cc1 [Example 17]		
0.26	0.19	N=C(N)Nc1ccc(C(=O)Oc2cc(Cl)c(CC(=O)N[C@@H](Cc3ccccc3)C(=O)O)c(Cl)c2)cc1 [Example 27]		
0.42	0.38	N=C(N)Nc1ccc(C(=O)Oc2ccc(CC(=O)N(CCC(=O)O)[C@@H](Cc3ccccc3)C(=O)O)c(Cl)c2)cc1 [Example 54]		
0.17	0.19	N=C(N)Nc1ccc(C(=O)Oc2ccc(CC(=O)N[C@@H](Cc3ccc(O)cc3)C(=O)O)c(Cl)c2)cc1 [Example 1, N-({4-[(4-carbamimidamidobenzoyl)oxy]-2-chlorophenyl}acetyl)-L-tyrosine hydrochloride]		
